In patent publication EP4635958A1, “PYRIMIDINE-CONTAINING POLYCYCLIC DERIVATIVE INHIBITOR, AND PREPARATION METHOD THEREFOR AND USE THEREOF” (Shanghai Hansoh Biomedical Co., Ltd., priority 2022, dated 2024):

Assays:
[1] = system: human colorectal cancer cell line (GP2D); test: Anti-tumor efficacy in mouse transplanted tumor model of human colorectal cancer cell line (GP2D); assay type: in vivo, mice (BALB/c nude); conditions: PO*BID
Excerpt: 8-10 week old female conventional immunodeficient mice (BALB/c nude) with a body weight of 18 g-22 g were used as experimental animals, and a transplanted tumor model of human colorectal cancer cell line (GP2D) was used to conduct in vivo efficacy experiments to test the anti-tumor results of the example compounds after gavage administration.
The example compounds of the present invention, made in house.
A certain amount of the example compound was weighed, and an appropriate amount of 10% vehicle (Solutol HS15) was added. The mixture was stirred on a magnetic stirrer for 0.5 h to formulate a homogeneous suspension at the desired concentration.
The human colorectal cancer cell line (GP2D) was derived from COBIOER BIOSCIENCES CO., LTD, cultured on DMEM medium (Gibco, 11995-065) supplemented with 10% fetal calf serum (Gibco, 10091-148) and 1% penicillin/streptomycin (Gibco, 15140-122) and observed under a microscope (Thermo Fisher, 311). The cells were routinely passaged when the cells reached 80%-90% confluence in the culture flask. The passaged cells were cultured in a 37°C, 5% CO2 incubator (Thermo Fisher, 311).
Under aseptic conditions, human colorectal cancer cells (GP2D) in the logarithmic growth phase were harvested using 0.25% trypsin-EDTA (Gibco, 25200-056), washed and resuspended with phosphate buffer. The cell suspension was mixed with Matrigel (Corning, 356234) at a 1 : 1 ratio (v/v) and implanted subcutaneously into the right anterior dorsal region of immunodeficient mice (BALB/c nude). Each mouse was inoculated with 5*10^6 cells in a volume of 100 microliters (µL). After inoculation, when the tumor volume reached 100-200 mm^3, the mice would be evenly randomized into 5 groups based on the tumor size, with 5 mice per group, for in vivo efficacy experiments. The positive control group was the compound MRTX-1133, and the negative control group was the vehicle group.
Mode of administration: The positive control group was intraperitoneally injected, and the example compounds were administered orally.
Twice a week, the long and short diameters of the tumor were measured using a vernier caliper, and the tumor volume (mm^3) was calculated using the formula: V = 0.5*D*d*d, where D and d are the long and short diameters of the tumor, respectively. The anti-tumor efficacy was determined by dividing the average increase in tumor volume of compound-treated animals by the average increase in tumor volume of untreated animals. The calculation formula for tumor inhibition rate was: When there is no tumor regression, TGI(%) = 100-[(Vt-V0) administration group/(Vt-V0) vehicle control group]*100%. When tumor regression occurs, TGI(%) = [1-(V1-V0) administration group/V0 vehicle control group]* 100%. All animals were euthanized after the experiment.

[2] = Plasma stability test, dog plasma; assay type: in vitro ADME;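 further: parent compound left in dog plasma quantified by LC-MS with positive electrospray ionization, selected reaction monitoring and an internal standard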
Experimental: (§1) Liquid chromatography-mass spectrometer, centrifuge, vortexer, pipette, continuous dispenser, 96-well plate, 50% methanol aqueous solution, acetonitrile solution containing internal standard, blank matrix (plasma of rat, dog, or human), Propantheline (propantheline bromide), Mevinolin (lovastatin), and test compound.
(§2) After whole blood was collected from animals or humans, it was placed in a test tube containing an anticoagulant and centrifuged at 3500 rpm for 10 min to collect the upper pale yellow plasma.
(§3) The compound was weighed and the stock solution was formulated with DMSO and the working solution was formulated with 100 mM phosphate buffer.
(§4) • Instrument: API4000 liquid chromatography-mass spectrometer, AB Company, USA; • the ion source was electrospray ionization source (ESI); • drying gas (N2) temperature was 500°C; • electrospray voltage was 5500V; • the detection method was positive ion detection; • the scanning method was selected reaction monitoring (MRM); • the scanning time was 0.1s.

[3] = Plasma stability test, mouse plasma; assay type: in vitro ADME; conditions: for half-life: read-out: t1/2 (converted);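 on all read-outs here: test compound quantified by LC-MS using positive-mode electrospray ionization and MRM scanning, with an internal standard added in acetonitrile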
Experimental: as §1, §2, §3, §4

[4] = Plasma stability test, human plasma; assay type: in vitro ADME;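 further: test compound incubated in human plasma, quantified by LC-MS/MS (positive-ion ESI, MRM) against an internal standard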
Experimental: as §1, §2, §3, §4

[5] = Pharmacokinetic determination in mice (IV and PO, plasma, LCMS/MS); assay type: in vivo, Balb/c mice; conditions: mouse, in vivo, po, 30 mg/kg
Method in brief: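 Male Balb/c mice, fasted overnight (n=3 per route): PO 30 mg/kg in 10% Captisol/50 mM citrate pH 5.0, or IV 1 mg/kg in 5% DMSO/10% Solutol HS15/85% PBS. Orbital blood sampled predose to 24 h; EDTA plasma analysed by LC-MS/MS.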

C#Cc1c(F)ccc2cc(O)cc(-c3nc4c5c(nc(OCC6(CN7CCC(=CF)CC7)CC6)nc5c3F)N3C[C@H]5CC[C@H](N5)[C@H]3[C@H](C)O4)c12 [Example 129, 5-ethynyl-6-fluoro-4-((5S,5aS,6S,9R)-1-fluoro-12-((1-((4-(fluoromethylene)piperidin-1-yl)methyl)cyclopropyl)methoxy)-5-methyl-5a,6,7,8,9,10-hexahydro-5H-4-oxa-3,10a,11,13,14-pentaaza-6,9-methylnaphtho[1,8-ab]hept-2-yl)naphthalen-2-ol]
Tumor volume (mm^3, Mean ± SD) Day 0 ([1]; 30mpk): 167 mm^3
TGI(%) Day 14 ([1]; 30mpk): 133.12%
ΔT/ΔC(%) Day 14 ([1]; 30mpk): 14.15%
Tumor volume (mm^3, Mean ± SD) Day 0 ([1]; 100mpk): 167 mm^3
TGI(%) Day 14 ([1]; 100mpk): 153.01%
Tumor volume (mm^3, Mean ± SD) Day 14 ([1]; 100mpk): 79 mm^3
ΔT/ΔC(%) Day 14 ([1]; 100mpk): 9.94%
t1/2 ([2]; Dog plasma, 37°C): ∞
Remaining rate (%) 0 min ([2]; Dog plasma, 37°C, 0 min): 100.00%
Remaining rate (%) 15 min ([2]; Dog plasma, 37°C, 15 min): 100.48%
Remaining rate (%) 30 min ([2]; Dog plasma, 37°C, 30 min): 100.22%
Remaining rate (%) 60 min ([2]; Dog plasma, 37°C, 60 min): 97.42%
Remaining rate (%) 120 min ([2]; Dog plasma, 37°C, 120 min): 110.22%
Remaining rate (%) 0 min ([3]; Mouse plasma, 37°C, 0 min): 100.00%
Remaining rate (%) 15 min ([3]; Mouse plasma, 37°C, 15 min): 97.30%
Remaining rate (%) 30 min ([3]; Mouse plasma, 37°C, 30 min): 103.47%
Remaining rate (%) 60 min ([3]; Mouse plasma, 37°C, 60 min): 104.94%
Remaining rate (%) 120 min ([3]; Mouse plasma, 37°C, 120 min): 91.62%
half-life ([3]; Mouse plasma, 37°C): 37.6 h
t1/2 ([4]; Human plasma, 37°C): ∞
Remaining rate (%) 0 min ([4]; Human plasma, 37°C, 0 min): 100.00%
Remaining rate (%) 15 min ([4]; Human plasma, 37°C, 15 min): 109.00%
Remaining rate (%) 30 min ([4]; Human plasma, 37°C, 30 min): 97.59%
Remaining rate (%) 60 min ([4]; Human plasma, 37°C, 60 min): 101.54%
Remaining rate (%) 120 min ([4]; Human plasma, 37°C, 120 min): 105.91%

[2H]C([2H])([2H])[C@@H]1Oc2nc(-c3cc(O)cc4ccc(F)c(C#C)c34)c(F)c3nc(OCC4(CN5CCC(=C(F)F)CC5)CC4)nc(c23)N2C[C@H]3CC[C@H](N3)[C@@H]12 [Example 161, 4-((5S,5aS,6S,9R)-12-((1-((4-(difluoromethylene)piperidin-1-yl)methyl)cyclopropyl)methoxy)-1-fluoro-5-(methyl-d3)-5a,6,7,8,9,10-hexahydro-5H-4-oxa-3,10a,11,13,14-pentaaza-6,9-methylnaphtho[1,8-ab]hept-2-yl)-5-ethynyl-6-fluoronaphthalen-2-ol]
Tumor volume (mm^3, Mean ± SD) Day 0 ([1]; 30mpk): 167 mm^3
TGI(%) Day 14 ([1]; 30mpk): 134.18%
ΔT/ΔC(%) Day 14 ([1]; 30mpk): 13.93%
Tumor volume (mm^3, Mean ± SD) Day 0 ([1]; 100mpk): 167 mm^3
TGI(%) Day 14 ([1]; 100mpk): 153.75%
Tumor volume (mm^3, Mean ± SD) Day 14 ([1]; 100mpk): 77 mm^3
ΔT/ΔC(%) Day 14 ([1]; 100mpk): 9.79%
half-life ([2]; Dog plasma, 37°C, read-out: t1/2 (converted)): 31.4 h
Remaining rate (%) 0 min ([2]; dog, plasma, 0 h): 100.00%
Remaining rate (%) 15 min ([2]; dog, plasma, 0.25 h): 91.74%
Remaining rate (%) 30 min ([2]; dog, plasma, 0.5 h): 92.09%
Remaining rate (%) 60 min ([2]; dog, plasma, 1 h): 90.97%
Remaining rate (%) 120 min ([2]; dog, plasma, 2 h): 88.28%
half-life ([3]; Mouse plasma, 37°C): 229 h
Remaining rate (%) 0 min ([3]; mouse, plasma, 0 h): 100.00%
Remaining rate (%) 15 min ([3]; mouse, plasma, 0.25 h): 101.36%
Remaining rate (%) 30 min ([3]; mouse, plasma, 0.5 h): 101.38%
Remaining rate (%) 60 min ([3]; mouse, plasma, 1 h): 98.35%
Remaining rate (%) 120 min ([3]; mouse, plasma, 2 h): 101.35%
AUC(0-inf) [5]: 1550 ng·h/mL
Cmax [5]: 221 ng/mL
Tmax [5]: 2 h
half-life ([4]; Human plasma, 37°C, read-out: t1/2 (converted)): 142 h
Remaining rate (%) 0 min ([4]; human, plasma, 0 h): 100.00%
Remaining rate (%) 15 min ([4]; human, plasma, 0.25 h): 93.48%
Remaining rate (%) 30 min ([4]; human, plasma, 0.5 h): 92.44%
Remaining rate (%) 60 min ([4]; human, plasma, 1 h): 95.19%
Remaining rate (%) 120 min ([4]; human, plasma, 2 h): 97.25%

4-((5S,5aS,6R,9S)-12-((1-((((R)-4-(difluoromethylene)-2-methylpiperidin-1-yl)methyl)cyclopropyl)methoxy)-1-fluoro-5-(methyl-d3)-5a,6,7,8,9,10-hexahydro-5H-4-oxa-3,10a,11,13,14-pentaaza-6,9-methylnaphtho[1,8-ab]hept-2-yl)-5-ethynyl-6-fluoronaphthalen-2-ol [Example 162]
Tumor volume (mm^3, Mean ± SD) Day 0 ([1]; 30mpk): 167 mm^3
TGI(%) Day 14 ([1]; 30mpk): 122.15%
ΔT/ΔC(%) Day 14 ([1]; 30mpk): 16.47%
Tumor volume (mm^3, Mean ± SD) Day 0 ([1]; 100mpk): 167 mm^3
TGI(%) Day 14 ([1]; 100mpk): 133.67%
Tumor volume (mm^3, Mean ± SD) Day 14 ([1]; 100mpk): 111 mm^3
ΔT/ΔC(%) Day 14 ([1]; 100mpk): 14.04%
